# Results: patent publication US20150052630A1, “Methods and Compositions for Obtaining Useful Plant Traits” (Board of Regents of the University of Nebraska, priority 2013, published 2015)
# Entries after “also recorded” stand apart in the source; their conditions may differ.
# Tested on: Arabidopsis seedlings (wild type Col-0, epi-line, Col-0/msh1 graft progeny)
# Assay: 5-Azacytidine treatment and root length assay (methylation inhibition assay)
# Assay type: in vivo
# Conditions: 50 μM 5-azacytidine, half-strength MS plates, seedlings transferred 3 days post-germination, root lengths measured at ten days
# Description: FIG. 27A-C. a, Distribution of msh1 SNPs and indels versus Col-0 across the genome. Each dot represents the number of SNPs and indels found in a window of 50 kbp. Note that the Y-axis has been synchronized with the maximum number found on chr4 to enable comparisons between chromosomes. The region 7,800,000-9,850,0000 bp on chr4, a likely introgressed segment from Ler, contains 8582 of the total 12,771 SNPs and indels. […] Paired-end genome-wide sequencing, alignment and de novo partial assembly of the chm1-1 genome produced 14,416 contigs (n50=40,761 bp) containing 118.5 Mbp; mapping these contigs against Col-0 covers 72 Mbp. Alignment of paired-end reads to the Col-0 public reference sequence produced 95% alignment and identified 12,771 SNPs and indels, with the one 2-Mbp interval, on chromosome 4, accounting for 8,582 and the second on Chromosome 3 accounting for 2200. […]
# Treatment with azacytidine can be used to nullify methylation effects^42. […] Ten days after moving to growth chamber, plates were scanned and root lengths were measured using ImageJ. […]
compound,measurement,value
Nc1ncn([C@@H]2O[C@H](CO)[C@@H](O)[C@H]2O)c(=O)n1 [5-azacytidine],effect on enhanced epi-line root length,restoration of epi-F3 seedlings to wild type growth levels; also recorded: abolished
